Values quoted from earlier work as cited in patent US6506736B1, “Method for obtaining and using a combination of a purine nucleotide and nitrogen monoxide donor for treating sexual dysfunction” (priority 1998, dated 2003).

Tests used:
erection = conditions: dogs; intravenous injection
erectile dysfunction = conditions: 2800 mg L-arginine per day

Row | SMILES | induction of erection (erection) | cases with favorable effect on erectile dysfunction (erectile dysfunction)
1 | Nc1ncnc2c1ncn2[C@@H]1O[C@H](COP(=O)(O)OP(=O)(O)OP(=O)(O)O)[C@@H](O)[C@H]1O [adenosine triphosphate] | induces erection | –
2 | N=C(N)NCCC[C@H](N)C(=O)O [L-arginine] | – | approximately 40%
